The series can be described thus: Solubility test in biological media (FaSSIF, FeSSIF, SGF) and water, 37° C. Format: physicochemical. The settings on record: for Status (24 h) / solubility at 24 h / pH 24 hours: 37° C.; for Status (24 h): about 4 mg in 2 mL; for solubility at 24 h: salt forms converted to salt concentrations, read-out: Solubility (mg/mL) 24 hours; for pH 24 hours: supernatant; for pH 0 hour: initial. The method, then:
Step 1: Preparation of Control Solutions (0.2 mg/mL, calculated by free base)
2 mg the crystal form B of the compound represented by formula (I) (or 2.4 mg the crystal form E of the compound represented by formula (II)) as a control was precisely weighed and placed into a 40 mL glass vial, and a diluent (10 mL) was precisely added. The reaction solution was subjected to ultrasonic treatment for 20 min to sufficiently dissolve, then cooled to room temperature and shaked well. Two control solutions (STD #1, STD #2) were formulated in accordance with this method.
Step 2: Preparation of Linear Solutions
The control solution STD #1 of the crystal form B of the compound represented by formula (I) was 1×, 10×, 100×, 1000× and 2000× (free base LOQ) diluted, and designated as the linear solutions L1, L2, L3, L4 and L5; the control solution STD #1 of the crystal form E of the compound represented by formula (II) was 1×, 10×, 100× and 1000× (methanesulfonate LOQ) diluted, and designated as the linear solutions L1, L2, L3, L4.
Step 3: Solubility Test of the crystal form B of the compound represented by formula (I), the crystal form G of the compound represented by formula (III) and the crystal form E of the compound represented by formula (II) in biological media and water
4 samples (about 4 mg) of each of the crystal form B of the compound represented by formula (I), the crystal form E of the compound represented by formula (II), and the crystal form G of the compound represented by formula (III) were added into 12 glass vials (4 mL), respectively, and then 2 mL different biological media (FaSSIF, FeSSIF, SGF) and water were added into each compound respectively, then mixed homogeneously to form a suspension. The suspension was detected for its initial pH value. A magnet was added into the suspension, and placed on a magnetic stirring heater for stirring (at a temperature of 37° C., in dark). After stirring for 24 h, a sample was taken. The taken sample was quickly centrifuged, and the residual solid was detected by XRPD. The supernatant was detected for its pH value and diluted with a diluent into appropriate multiple, then measured with HPLC for its concentration.
FaSSIF: 1. 0.042 g sodium hydroxide, 0.3438 g sodium dihydrogen phosphate and 0.6186 g sodium chloride were weighed, added into 90 mL purified water, and homogeneously mixed, then, the mixture was adjusted with 1 N hydrochloric acid or 1 N sodium hydroxide to pH=6.5, and diluted into a constant volume of 100 mL with purified water; 2. 50 mL of the buffer described above was taken, and 0.224 g commercially available powder (Biorelevant.com) of FaSSIF/FeSSIF/FaSSGF was added thereto, the mixture was stirred to dissolve, and diluted with purified water to a constant volume of 100 mL.
FeSSIF: 1. 0.404 g sodium hydroxide, 0.865 g glacial acetic acid, and 1.1874 g sodium chloride were weighed, added into 90 mL purified water, and homogeneously mixed, then, the mixture was adjusted with 1 N hydrochloric acid or 1 N sodium hydroxide to pH=5.0, and diluted with purified water to a constant volume of 100 mL, 2. 50 mL of the buffer described above was taken, and 1.12 g commercially available powder (Biorelevant.com) of FaSSIF/FeSSIF/FaSSGF was added thereto, the mixture was stirred to dissolve, and diluted with purified water to a constant volume of 100 mL.
FaSSGF (SGF): 1. 0.2 g sodium chloride was weighed, added into 90 mL purified water, and mixed homogeneously, the mixture was adjusted with 1 N hydrochloric acid to pH=1.8, and diluted with purified water to a constant volume of 100 mL, and stood at room temperature.

Setting [1] is: SGF (FaSSGF), pH 1.8, simulated gastric fluid, thermodynamic from solid, SGF.
Where [2] appears, read: pH 5, thermodynamic from solid, FeSSIF.
The mark [3] stands for this setting: pH 6.5, thermodynamic from solid, FaSSIF.
Setting [4] is: thermodynamic from solid, Water.

Where two headings read alike, the source gives them in different places.

Take `C=CC(=O)N[C@H]1COC[C@H]1Nc1ncc(/C=C(\F)c2c(Cl)c(OC)cc(OC)c2Cl)cn1.CS(=O)(=O)O` [Crystal Form E]: the “Status (24 h)” value runs as follows: (FaSSIF) “Suspension”; (FeSSIF) “Suspension”; (SGF) “Suspension”; (Water) “Suspension”. The “solubility in three types of biological media, conclusion in words” value (FaSSIF, FeSSIF, SGF) is “good solubility”. Also, the solubility at 24 h is, setting by setting: under setting [1], 0.041 mg/mL; under setting [2], 0.358 mg/mL; under setting [3], 0.036 mg/mL; under setting [4], 0.1 mg/mL. The “pH 24 hours” value runs as follows: (FaSSIF) 6.81; (FeSSIF) 5.11; (SGF) 2.31; (Water) 2.74. Moreover, the “pH 0 hour” value by setting is: (suspension in FaSSIF) 6.97; (suspension in FeSSIF) 4.92; (suspension in SGF) 2.17; (suspension in Water) 3.50.

`C=CC(=O)N[C@H]1COC[C@H]1Nc1ncc(/C=C(\F)c2c(Cl)c(OC)cc(OC)c2Cl)cn1` [Crystal Form B]: the “Status (24 h)” value is given as “Suspension” (FaSSIF), “Suspension” (FeSSIF), “Suspension” (SGF) and “Suspension” (Water). For the same compound, the “solubility in three types of biological media, conclusion in words” value (FaSSIF, FeSSIF, SGF) is given as “good solubility”. For the same compound, the solubility at 24 h by setting is: under setting [1], 0.014 mg/mL; under setting [2], 0.284 mg/mL; under setting [3], 0.041 mg/mL; under setting [4], 0.007 mg/mL. Also, the “pH 24 hours” value (FaSSIF) stood at 7.10, the “pH 24 hours” value (FeSSIF) is on record as 5.18, the “pH 24 hours” value (SGF) is 2.48 and the “pH 24 hours” value (Water) is reported as 7.30. Moreover, the “pH 0 hour” value worked out at 7.04 (suspension in FaSSIF), 4.98 (suspension in FeSSIF), 2.21 (suspension in SGF) and 8.34 (suspension in Water).

(Values after US11440903B2, “Salt form and crystal form of compound as FGFR4 inhibitor and preparation method thereof” (GUANGDONG ZHONGSHENG PHARMACEUTICAL CO., LTD, priority 2017, dated 2022).)
